Like-named read-outs stand apart in the source and are kept apart here.
How the values were obtained:
urease [1] = target: urease (Canavalia ensiformis, UniProt P07374)
Experimental: This can simply be studied by addition of 30 ml of methanal to the urease-contaminated and Cu^2+-contaminated reference system.
This is simple studied by addition of 30 ml methanal to the reference system contaminated with urease, Ag^+- or Pb^2+-ions.

[2] = system: urease activity from natural animal faeces; assay: stable experiment: collected liquid manure and faeces with inhibitor, hyperfiltration, polymerisation with methanal; parameters: species or system pigs; details: for polymerisation of concentrated livestock-produced urea with methanal: 50 ml of hyperfiltration concentrate plus 30 ml methanal
Experimental: Below a stable floor supporting 20 pigs to be slaughtered a large plastic foil covering the underlying floor having the shape of an inverted pyramid was placed. […] The liquid manure and faeces of the animals were collected on this foil for the next 24 hours. From this foil 20 l sample was collected (and separated) and treated in a hyperfiltration system of the type ROMEDI-250 supplied by UNION-filtration a/s, Nakskov, Denmark. The separation process was continued until a total of 15 l permeate liquid—water was withdrawn. The urea-lean fraction was disposed.

urease EC 3.5.1.5 = urease EC 3.5.1.5 (Canavalia ensiformis, UniProt P07374)
Sequence of urease EC 3.5.1.5 (P07374 whole entry, looked up): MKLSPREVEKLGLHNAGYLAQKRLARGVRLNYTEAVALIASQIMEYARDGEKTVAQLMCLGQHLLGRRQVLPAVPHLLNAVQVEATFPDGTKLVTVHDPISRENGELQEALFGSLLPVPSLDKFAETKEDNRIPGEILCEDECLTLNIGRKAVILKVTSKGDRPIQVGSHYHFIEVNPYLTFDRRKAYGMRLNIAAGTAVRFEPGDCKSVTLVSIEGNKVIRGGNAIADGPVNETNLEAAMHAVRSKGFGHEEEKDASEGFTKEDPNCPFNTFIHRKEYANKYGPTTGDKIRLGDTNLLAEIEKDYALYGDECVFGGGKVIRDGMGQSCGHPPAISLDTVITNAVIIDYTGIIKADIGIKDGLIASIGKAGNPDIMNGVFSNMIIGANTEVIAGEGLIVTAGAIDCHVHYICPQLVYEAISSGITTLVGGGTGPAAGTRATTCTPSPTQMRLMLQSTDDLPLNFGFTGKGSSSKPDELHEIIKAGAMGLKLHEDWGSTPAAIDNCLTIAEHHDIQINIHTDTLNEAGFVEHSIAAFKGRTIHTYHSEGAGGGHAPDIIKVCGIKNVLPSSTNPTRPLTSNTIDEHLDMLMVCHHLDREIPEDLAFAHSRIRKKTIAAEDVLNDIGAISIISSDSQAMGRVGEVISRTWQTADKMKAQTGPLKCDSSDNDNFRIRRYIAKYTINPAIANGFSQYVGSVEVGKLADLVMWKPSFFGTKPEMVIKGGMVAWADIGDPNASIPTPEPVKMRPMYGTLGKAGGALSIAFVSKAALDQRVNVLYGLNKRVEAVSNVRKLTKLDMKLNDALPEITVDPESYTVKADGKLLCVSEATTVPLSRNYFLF
Experimental: For this example, a colourless urea reference system is defined by the following mixture: in a conical flask 10 g of synthetic urea is diluted with water to 50 ml, three drops of the acid-base indicator phenolphthalein is added.

urease [3] = system: urease
[4] = 30 ml methanal (24% by weight) added to urease-contaminated urea system containing the inhibitor

Sequence of urease (Canavalia ensiformis, UniProt P07374) (P07374 whole entry, looked up): as above

CC(=NO)C(C)=NO [dimethylglyoxime]
formation of urea formaldehyde plastic in spite of urease contamination (urease [1]; [4]): it is possible to form the urea formaldehyde plastic | polymerisation of concentrated livestock-produced urea with methanal [2]: can be reproduced

O=[N+]([O-])[O-].[Ag+] [silver nitrate]
colour shift of phenolphthalein into red (ammonia formation by urea hydrolysis) (urease EC 3.5.1.5; 1 g inhibitor added to 10 g urea in 50 ml water, then 1 ml urease (540 units per ml), system also does not begin to smell of ammonia): the colour shift of phenolphthalein does not occur | catalytic effect of the urease enzyme on the hydrolysis of urea (urease EC 3.5.1.5; ions present in the urinal system): completely lost | formation of urea formaldehyde plastic in spite of urease contamination (urease [1]; [4]): it is possible to form the urea formaldehyde plastic | polymerisation of concentrated livestock-produced urea with methanal [2]: can be reproduced

CC(=O)[O-].CC(=O)[O-].[Pb+2] [lead acetate]
polymerisation of concentrated livestock-produced urea with methanal [2]: can be reproduced

NCCN [ethylenediamine]
formation of urea formaldehyde plastic in spite of urease contamination (urease [1]): it is possible to form the urea formaldehyde plastic | polymerisation of concentrated livestock-produced urea with methanal [2]: can be reproduced

NC(N)=O [urea]
Km (urease [3]; pH 5.5, pig manure system): ~1000 µM | νm (urease [3]; pH 5.5, pig manure system): approximately 2×10^−3 mol/dm^3/min | Km (urease [3]; pH 7, similar manure system): ~4000 µM | νm (urease [3]; pH 7, similar manure system): approximately 11×10^−3 mol/dm^3/min

copper sulphate, pentahydrate
urease activity in manure system ([2]; 5 l water and 10 g copper sulphate, pentahydrate below stable floor, 20 pigs, 24 hours collection): remove the urease activity | polymerisation of concentrated livestock-produced urea with methanal [2]: the polymerisation proceeded

— US7731856B2, “Method and system for treating waste matter from animals, urea-rich and urea-lean waste-matter products, and uses thereof” (Waste 2 Green, LLC, priority 2003, dated 2010)
